{"source": "patent US20110171174A1", "about": "“Synergistic Combinations of a Macrocyclic Inhibitor of HCV and a Nucleoside” (ORTHO-MCNEIL-JANSSEN PHARMACEUTICALS, INC., priority 2008, published 2011)", "test_system": "HCV replicon (Huh-7 luc/neo cells, NS3-NS5B regions of HCV type 1b)", "assay": "HCV replicon assay (Huh-Luc cells, luciferase read-out)", "assay_type": "cell-based", "details": "Hepatitis C virus, Huh-7, 72 h, three days incubation, luciferase activity, read-out: average EC50 value in the HCV replicon test", "text": "The in vitro antiviral activity against HCV of the compound of formula I or of formula II can be tested in a cellular HCV replicon system based on Lohmann et al. (1999) Science 285:110-113, with the further modifications described by Krieger et al. (2001) Journal of Virology 75: 4614-4624 (incorporated herein by reference), which is further exemplified in the examples section. This model, while not a complete infection model for HCV, is widely accepted as the most robust and efficient model of autonomous HCV RNA replication currently available. The in vitro antiviral activity against HCV can also be tested by enzymatic tests.\nThe compounds of formula I were examined for activity in the inhibition of HCV RNA replication in a cellular assay. […] The cellular assay was based on a bicistronic expression construct, as described by Lohmann et al. (1999) Science vol. […]\nThe replicon cells were plated in 384 well plates in the presence of the test and control compounds which were added in various concentrations. Following an incubation of three days, HCV replication was measured by assaying luciferase activity (using standard luciferase assay substrates and reagents, and a Perkin Elmer ViewLux™ ultraHTS microplate imager). […] The inhibitory activity of the compound was monitored on the Huh-Luc cells, enabling a dose-response curve for each test compound. […]", "data": [{"smiles": "COc1ccc2c(O[C@@H]3C[C@H]4C(=O)N[C@]5(C(=O)NS(=O)(=O)C6CC6)C[C@H]5C=CCCCCN(C)C(=O)[C@@H]4C3)cc(-c3nc(C(C)C)cs3)nc2c1C", "note": "(stereo in doubt) [compound I, (1R,4R,6S,15R,17R)-cis-N-[17-[2-(4-isopropylthiazole-2-yl)-7-methoxy-8-methyl-quinolin-4-yloxy]-13-methyl-2,14-dioxo-3,13-diazatricyclo[13.3.0.0^4,6]octadec-7-ene-4-carbonyl](cyclopropyl)sulfonamide]", "values": [{"measurement": "EC50", "result": 8, "unit": "nM"}]}, {"smiles": "C[C@@H]1[C@H](n2ccc(N)nc2=O)O[C@@](CO)(N=[N+]=[N-])[C@H]1O", "note": "[compound II, 4-amino-1-((2R,3 S,4S,5R)-5-azido-4-hydroxy-5-hydroxymethyl-3-methyltetrahydro-furan-2-yl)-1H-pyrimidin-2-one]", "values": [{"measurement": "EC50", "result": 5000, "unit": "nM"}]}]}
